In patent publication US20070027184A1, “Multicyclic sulfonamide compounds as inhibitors of histone deacetylase for the treatment of disease” (KALYPSYS, INC., priority 2005, published 2007):
Like-named read-outs stand apart in the source and are kept apart here.

Experiments:
HDAC = assay: In vitro HDAC-inhibition assay (Fluor de Lys); assay type: biochemical
Protocol: This assay measures a compound's ability to inhibit acetyl-lysine deacetylation in vitro and was used as both a primary screening method as well as for IC50 determinations of confirmed inhibitors. The assay is performed in vitro using an HDAC enzyme source (e.g. partially purified nuclear extract or immunopurified HDAC complexes) and a proprietary fluorescent substrate/developer system (HDAC Quantizyme Fluor de Lys Fluorescent Activity Assay, BIOMOL). The assay is run in 1,536-well Greiner white-bottom plates using the following volumes and order of addition:
Step 1: Enzyme (2.5 ul) source added to plate (from refrigerated container)
Step 2: Compounds (50 nl) added with pin transfer device
Step 3: Fluor de Lys (2.5 ul) substrate added, incubate at RT, 30 minutes
Step 4: Developer (5 ul) solution is added (containing TSA), to stop reaction
Step 5: Plate Reader—data collection
The deacetylated fluorophore is excited with 360 nm light and the emitted light (460 nm) is detected on an automated fluorometric plate reader (Aquest, Molecular Devices).

HDAC in cells = assay: Cellular IC50 (cellular histone hyperacetylation / differential cytotoxicity assays); assay type: cell-based
Protocol: These two secondary assays evaluates a compound's ability to inhibit HDAC in cells by measuring cellular histone acetylation levels. The cytoblot facilitates quantitative EC50 information for cellular HDAC inhibition. Transformed cell lines (e.g. HeLa, A549, MCF-7) are cultured under standard media and culture conditions prior to plating.
Cells (approx. 2,500/well) are allowed to adhere 10-24 hours to wells of a 384-well Greiner PS assay plate in media containing 1-5% serum. Cells are treated with appropriate compound and specific concentrations for 0 to 24 hours. Cells are washed once with PBS (60 ul) and then fixed (95% ethanol, 5% acetic acid or 2% PFA) for 1 minute at RT (30 ul). Cells are blocked with 1% BSA for 1 hour and washed and stained with antibody (e.g. anti-Acetylated Histone H3, Upstate Biotechnology), followed by washing and incubation with an appropriate secondary antibody conjugated to HRP or fluorophore. For luminescence assays, signal is generated using Luminol substrate (Santa Cruz Biotechnology) and detected using an Aquest plate reader (Molecular Devices).
HDAC inhibitors display differential cytotoxicity toward certain transformed cell lines. Cells are cultured according to standard ATCC recommended conditions that are appropriate to each cell type. Compounds were tested for their ability to kill different cell types (normal and transformed) using the ATPlite luminescence ATP detection assay system (Perkin Elmer). Assays are run in either 384-well or 1536-well Greiner PS plates. Cells (30 ul or 5 ul, respectively) are dispensed using either multichannel pipette for 384-well plates, or proprietary Kalypsys bulk liquid dispenser for 1536-well plates. Compounds added using proprietary pin-transfer device (500 nL or 5 nL) and incubated 5 to 30 hours prior to analysis. Luminescence is measured using Aquest plate reader (Molecular Devices).

in vivo = settings: female, mouse, in vivo
Protocol: (§1) 5×10^6 HCT-116 colorectal cancer cells were injected subcutaneously into the right flank of 4-6 week old female nude (nu/nu) mice. […] Tumor burden was determined twice weekly by measurement with calipers in 2-dimensions (length (l)×width (w)) and the volume of spheroid calculated using the formula (l×(w)^2/2). Bodyweight was measured and recorded on same day as tumor volume measurement.

[1] = tested on: HCT-116 colorectal cancer cells; assay: in vivo; settings: for T/C value for efficacy at MTD: daily oral gavage
Protocol: as §1

[2] = 50 mg/kg QD orally, data from another study

## CC(=O)SCC(=O)c1ccc(NS(=O)(=O)c2ccc3c(c2)OCCO3)nc1 [Example 1]
HDAC
  IC50: ≤ 1 µM
HDAC in cells
  IC50: ≤ 1 µM
In vivo; daily oral gavage, highest dose without lethality or ≧20% bodyweight loss, read-out: Maximum tolerated dose (MTD)
  MTD: < 100 mg/kg
[1]; [2]
  Survival: 10/10
  T/C: 53%
[1]; 50 mg/kg, determined previously
  Tolerability (weight loss, mortality): well tolerated
[1]; 100 mg/kg QD orally
  Survival: 8/10
  T/C: 42%
[1]; 125 mg/kg QD orally
  Survival: 7/10
  T/C: 29%
[1]; 175 mg/kg QD orally
  Survival: 0/10
  T/C: 11%
[1]; 250 mg/kg QD orally
  Survival: 2/10
  T/C: 15%
[1]
  T/C value for efficacy at MTD: 53%

## CC(=O)SCC(=O)c1ccc(NS(=O)(=O)c2ccc3c(c2)ncn3C)nc1 [Example 2]
HDAC
  IC50: ≤ 1 µM
HDAC in cells
  IC50: ≤ 1 µM

## CC(=O)SCC(=O)c1ccc(NS(=O)(=O)c2ccc3c(c2)OCCO3)cn1 [Example 3, Thioacetic acid S-{2-[5-(2,3-dihydro-benzo[1,4]dioxine-6-sulfonylamino)-pyridin-2-yl]-2-oxo-ethyl}ester]
HDAC
  IC50: ≤ 1 µM
HDAC in cells
  IC50: ≤ 1 µM

## CC(=O)SCC(=O)c1ccc(NS(=O)(=O)c2ccc3c(c2)CCO3)nc1 [Example 4, Thioacetic acid S-{2-[6-(2,3-dihydro-benzofuran-5-sulfonylamino)-pyridin-3-yl]-2-oxo-ethyl}ester]
HDAC in cells
  IC50: ≤ 1 µM

## CC(=O)SCC(=O)c1ccc(NS(=O)(=O)c2ccc3ncccc3c2)cc1 [Example 5, Thioacetic acid S-{2-oxo-2-[4-(quinoline-6-sulfonylamino)-phenyl]-ethyl}ester]
HDAC
  IC50: ≤ 1 µM
HDAC in cells
  IC50: ≤ 1 µM

## CC(=O)SCC(=O)c1ccc(NS(=O)(=O)c2ccc3c(c2)OCO3)nc1 [Example 6, Thioacetic acid S-{2-[6-(benzo[1,3]dioxole-5-sulfonylamino)-pyridin-3-yl]-2-oxo-ethyl}ester]
HDAC
  IC50: ≤ 1 µM
HDAC in cells
  IC50: ≤ 1 µM

## CC(=O)SCC(=O)c1cnc(NS(=O)(=O)c2ccc3c(c2)OCCO3)nc1 [Example 7, Thioacetic acid S-{2-[2-(2,3-dihydro-benzo[1,4]dioxine-6-sulfonylamino)-pyrimidin-5-yl]-2-oxo-ethyl}ester]
HDAC
  IC50: ≤ 1 µM
HDAC in cells
  IC50: > 1 µM

## O=C(CSSCC(=O)c1ccc(NS(=O)(=O)c2ccc3c(c2)OCCO3)nc1)c1ccc(NS(=O)(=O)c2ccc3c(c2)OCCO3)nc1 [Example 8, 2,3-Dihydro-benzo[1,4]dioxine-6-sulfonic acid [5-(2-mercapto-acetyl)-pyridin-2-yl]-amide disulfide]
HDAC
  IC50: ≤ 1 µM
HDAC in cells
  IC50: ≤ 1 µM

## O=C(O)CCSCC(=O)c1ccc(NS(=O)(=O)c2ccc3c(c2)OCCO3)nc1 [Example 9, 3-{2-[6-(2,3-Dihydro-benzo[1,4]dioxine-6-sulfonylamino)-pyridin-3-yl]-2-oxo-ethylsulfanyl}propionic acid]
HDAC
  IC50: > 1 µM

## CN(C)CCSSCC(=O)c1ccc(NS(=O)(=O)c2ccc3c(c2)OCCO3)nc1 [Example 10, 2,3-Dihydro-benzo[1,4]dioxine-6-sulfonic acid {5-[2-(2-dimethylamino-ethyldisulfanyl)-acetyl]-pyridin-2-yl}-amide]
HDAC
  IC50: ≤ 1 µM
HDAC in cells
  IC50: ≤ 1 µM

## O=C(CS)c1ccc(NS(=O)(=O)c2ccc3c(c2)OCCO3)nc1 [Example 11, 2,3-Dihydro-benzo[1,4]dioxine-6-sulfonic acid[5-(2-mercapto-acetyl)-pyridin-2-yl]-amide]
HDAC
  IC50: ≤ 1 µM
HDAC in cells
  IC50: ≤ 1 µM

## O=C(CSC(=O)c1ccccc1)c1ccc(NS(=O)(=O)c2ccc3c(c2)OCCO3)nc1 [Example 12, Thiobenzoic acid S-{2-[6-(2,3-dihydro-benzo[1,4]dioxine-6-sulfonylamino)-pyridin-3-yl]-2-oxo-ethyl}ester]
HDAC
  IC50: ≤ 1 µM
HDAC in cells
  IC50: ≤ 1 µM

## NC(CSSCC(=O)c1ccc(NS(=O)(=O)c2ccc3c(c2)OCCO3)nc1)C(=O)O (stereo not shown) [Example 13, 2-Amino-3-{2-[6-(2,3-dihydro-benzo[1,4]dioxine-6-sulfonylamino)-pyridin-3-yl]-2-oxo-ethyldisulfanyl}-propionic acid]
HDAC
  IC50: ≤ 1 µM
HDAC in cells
  IC50: ≤ 1 µM

## CC(=O)SCC(=O)c1ccc(NS(=O)(=O)c2ccc3c(c2)OCCN3C)nc1 [Example 14, Thioacetic acid S-{2-[6-(4-methyl-3,4-dihydro-2H-benzo[1,4]oxazine-7-sulfonylamino)-pyridin-3-yl]-2-oxo-ethyl}ester]
HDAC in cells
  IC50: ≤ 1 µM

## CC(=O)SCC(=O)c1ccc(NS(=O)(=O)c2ccc3c(c2)OCCCO3)nc1 [Example 15, Thioacetic acid S-{2-[6-(3,4-dihydro-2H-benzo[b][1,4]dioxepine-7-sulfonylamino)-pyridin-3-yl]-2-oxo-ethyl}ester]
HDAC in cells
  IC50: ≤ 1 µM

## CC(=O)SCC(=O)c1ccc(NS(=O)(=O)c2ccc3c(c2)OCC(C)(C)CO3)nc1 [Example 16, Thioacetic acid S-{2-[6-(3,3-dimethyl-3,4-dihydro-2H-benzo[b][1,4]dioxepine-7-sulfonylamino)-pyridin-3-yl]-2-oxo-ethyl}ester]
HDAC in cells
  IC50: ≤ 1 µM

## CC(=O)SCC(=O)c1csc(NS(=O)(=O)c2ccc3c(c2)OCCO3)n1 [Example 17, Thioacetic acid S-{2-[2-(2,3-dihydro-benzo[1,4]dioxine-6-sulfonylamino)-thiazol-4-yl]-2-oxo-ethyl}ester]
HDAC in cells
  IC50: > 1 µM

## CC(=O)SCC(=O)c1cnc(NS(=O)(=O)c2ccc3c(c2)OCCO3)s1 [Example 18, Thioacetic acid S-{2-[2-(2,3-dihydro-benzo[1,4]dioxine-6-sulfonylamino)-thiazol-5-yl]-2-oxo-ethyl}ester]
HDAC in cells
  IC50: ≤ 1 µM

## CC(=O)SCC(=O)c1ccc(NS(=O)(=O)c2ccc3nc(N4CCN(C)CC4)ccc3c2)nc1 [Example 19, Thioacetic acid S-(2-{6-[2-(4-methyl-piperazin-1-yl)-quinoline-6-sulfonylamino]-pyridin-3-yl}-2-oxo-ethyl)ester]
HDAC in cells
  IC50: ≤ 1 µM

## CC(=O)SCC(=O)c1ccc(NS(=O)(=O)c2ccc3nc(N4CCCN(C)CC4)ccc3c2)nc1 [Example 20, Thioacetic acid S-(2-{6-[2-(4-methyl-[1,4]diazepan-1-yl)-quinoline-6-sulfonylamino]-pyridin-3-yl}-2-oxo-ethyl)ester]
HDAC in cells
  IC50: ≤ 1 µM

## CC(=O)SCC(=O)c1ccc(NS(=O)(=O)c2ccc3nc(NCCN(C)C)ccc3c2)nc1 [Example 21, Thioacetic acid S-(2-{6-[2-(2-dimethylamino-ethylamino)-quinoline-6-sulfonylamino]-pyridin-3-yl}-2-oxo-ethyl)ester]
HDAC in cells
  IC50: ≤ 1 µM

## CC(=O)SCC(=O)c1ccc(NS(=O)(=O)c2ccc3nc(NCCCN(C)C)ccc3c2)nc1 [Example 22, Thioacetic acid S-(2-{6-[2-(3-dimethylamino-propylamino)-quinoline-6-sulfonylamino]-pyridin-3-yl}-2-oxo-ethyl)ester]
HDAC in cells
  IC50: ≤ 1 µM

## CC(=O)SCC(=O)c1ccc(NS(=O)(=O)c2ccc3nc(N(C)CCCN(C)C)ccc3c2)nc1 [Example 23, Thioacetic acid S-[2-(6-{2-[(3-dimethylamino-propyl)-methyl-amino]-quinoline-6-sulfonylamino}-pyridin-3-yl)-2-oxo-ethyl]ester]
HDAC in cells
  IC50: ≤ 1 µM

## CC(=O)SCC(=O)c1ccc(NS(=O)(=O)c2ccc3nc(N(C)C)ccc3c2)nc1 [Example 24, Thioacetic acid S-{2-[6-(2-dimethylamino-quinoline-6-sulfonylamino)-pyridin-3-yl]-2-oxo-ethyl}ester]
HDAC in cells
  IC50: ≤ 1 µM

## O=C(CCCCCCC(=O)Nc1ccccc1)NO [SAHA, reference compound]
In vivo; nude (nu/nu), po
  MTD: 250 mg/kg
[1]; [2]
  T/C: 59%
[1]; 100 mg/kg QD orally
  T/C: 65%
[1]; 125 mg/kg QD orally
  T/C: 73%
[1]; 175 mg/kg QD orally
  T/C: 41%
[1]; 250 mg/kg QD orally
  T/C: 52%
[1]; 350 mg/kg QD orally
  T/C: 24%
[1]; 350 mg/kg daily oral gavage
  Lethality: lethality was observed
[1]; 475 mg/kg QD orally
  T/C: 21%
[1]
  T/C value for efficacy at MTD: 52%
